molecular target: not listed separately; assay: poly(ADP-ribose)-polymerase (PARP) inhibition

**Q.** For `Cc1cccc2c(O)nc(-c3ccc(C#N)cc3)nc12`, which IC50 is on record?
**A.** Its IC50 is 270 nM.

**Q.** For `COc1cccc2c(O)nc(-c3ccc(C(F)(F)F)cc3)nc12`, which IC50 is on record?
**A.** Its IC50 is 39000 nM.

**Q.** For `Cc1cccc2c(O)nc(-c3ccccc3)nc12`, which IC50 is on record?
**A.** Its IC50 is 870 nM.

**Q.** For `COc1cccc2c(O)nc(-c3ccc([N+](=O)[O-])cc3)nc12`, which IC50 is on record?
**A.** The IC50 was 850 nM.

**Q.** Which IC50 does the source give for `Cc1cccc2c(O)nc(-c3ccc(O)cc3)nc12` here?
**A.** The IC50 was 220 nM.

**Q.** Which IC50 does the source give for `Nc1ccc(-c2nc(O)c3cccc(O)c3n2)cc1` here?
**A.** The IC50 was 520 nM.

**Q.** For `COc1cccc2c(O)nc(-c3ccccc3)nc12`, which IC50 is on record?
**A.** Its IC50 is 4200 nM.

**Q.** Which IC50 does the source give for `COc1ccc(-c2nc(O)c3cccc(C)c3n2)cc1` here?
**A.** Its IC50 is 190 nM.

**Q.** Which IC50 does the source give for `O=[N+]([O-])c1ccc(-c2nc(O)c3cccc(O)c3n2)cc1` here?
**A.** Its IC50 is 230 nM.

**Q.** Which IC50 does the source give for `COc1cccc2c(O)nc(-c3ccc(C#N)cc3)nc12` here?
**A.** The IC50 was 1340 nM.

**Q.** With `Cc1cccc2c(O)nc(-c3ccc(N)cc3)nc12` as the molecule, how does the IC50 read?
**A.** Its IC50 is 440 nM.

molecular target: Poly [ADP-ribose] polymerase 1 (Homo sapiens, UniProt P09874)
Sequence (P09874 whole entry): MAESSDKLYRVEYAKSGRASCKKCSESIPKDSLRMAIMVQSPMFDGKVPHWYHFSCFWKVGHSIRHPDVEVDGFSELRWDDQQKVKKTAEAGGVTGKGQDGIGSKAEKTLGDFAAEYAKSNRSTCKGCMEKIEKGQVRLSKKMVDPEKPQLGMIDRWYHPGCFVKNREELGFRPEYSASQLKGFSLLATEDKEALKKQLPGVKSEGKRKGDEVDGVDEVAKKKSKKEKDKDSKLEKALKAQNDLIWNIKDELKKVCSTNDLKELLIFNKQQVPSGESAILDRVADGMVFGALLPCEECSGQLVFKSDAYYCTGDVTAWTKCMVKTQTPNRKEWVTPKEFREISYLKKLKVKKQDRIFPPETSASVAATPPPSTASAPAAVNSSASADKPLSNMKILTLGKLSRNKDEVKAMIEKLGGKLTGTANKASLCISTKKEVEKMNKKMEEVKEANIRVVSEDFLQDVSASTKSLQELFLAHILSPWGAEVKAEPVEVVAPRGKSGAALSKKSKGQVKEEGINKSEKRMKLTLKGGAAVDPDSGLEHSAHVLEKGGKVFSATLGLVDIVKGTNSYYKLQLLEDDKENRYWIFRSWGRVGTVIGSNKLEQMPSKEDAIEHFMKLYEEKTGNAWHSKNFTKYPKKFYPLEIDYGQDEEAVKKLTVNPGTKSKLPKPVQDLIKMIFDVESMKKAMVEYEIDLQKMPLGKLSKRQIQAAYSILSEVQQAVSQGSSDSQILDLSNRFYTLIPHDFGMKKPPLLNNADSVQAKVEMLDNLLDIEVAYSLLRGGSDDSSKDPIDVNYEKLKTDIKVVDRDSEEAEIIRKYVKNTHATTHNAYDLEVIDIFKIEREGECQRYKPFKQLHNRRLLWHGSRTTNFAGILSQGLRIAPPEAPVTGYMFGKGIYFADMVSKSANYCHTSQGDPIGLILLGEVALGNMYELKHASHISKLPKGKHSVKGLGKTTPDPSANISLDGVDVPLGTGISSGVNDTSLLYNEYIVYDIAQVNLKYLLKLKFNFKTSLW
Description: The compound was tested for poly(ADP-ribose)-polymerase (PARP) inhibition

**Q.** With `NC(=O)c1ccc(Cl)cc1` as the molecule, how does the IC50 read?
**A.** The IC50 was 300 µM.

**Q.** Which IC50 does the source give for `CN(C)c1cccc(C(N)=O)c1` here?
**A.** Its IC50 is 120 µM.

**Q.** Which IC50 does the source give for `Cc1cccc(C(N)=O)c1` here?
**A.** The IC50 was 19 µM.

**Q.** For `NC(=O)c1ccc(O)cc1`, which IC50 is on record?
**A.** Its IC50 is 280 µM.

**Q.** Which IC50 does the source give for `NC(=O)c1ccc(F)cc1` here?
**A.** The IC50 was 200 µM.

**Q.** For `NC(=O)c1cccc(F)c1`, which IC50 is on record?
**A.** Its IC50 is 20 µM.

**Q.** For `NC(=O)c1ccc(N)cc1`, which IC50 is on record?
**A.** The IC50 was 1800 µM.

**Q.** For `NC(=O)c1cccc([N+](=O)[O-])c1`, which IC50 is on record?
**A.** The IC50 was 160 µM.

**Q.** For `NC(=O)c1ccc(Br)cc1`, which IC50 is on record?
**A.** Its IC50 is 2200 µM.

**Q.** Which IC50 does the source give for `NC(=O)c1cccc(O)c1` here?
**A.** Its IC50 is 9.1 µM.

**Q.** With `O=c1[nH]c2ccccc2c2ccccc12` as the molecule, how does the IC50 read?
**A.** The IC50 was 0.3 µM.

**Q.** Which IC50 does the source give for `O=c1[nH]c2ccc([N+](=O)[O-])cc2c2ccccc12` here?
**A.** The IC50 was 0.35 µM.

**Q.** For `NC(=O)c1ccccc1` [BENZAMIDE], which IC50 is on record?
**A.** Its IC50 is 22 µM.

**Q.** Which IC50 does the source give for `O=c1[nH]ncc2ccccc12` [PHTHALAZINONE] here?
**A.** The IC50 was 12 µM.

**Q.** Which IC50 does the source give for `O=c1[nH]cnc2ccccc12` [QUINAZOLINONE] here?
**A.** Its IC50 is 9.5 µM.
